The source of these data is patent US9751837B2, “Kinase inhibitors” (RESPIVERT LIMITED, priority 2014, dated 2017).

Values after ≈ are worked out from the molar mass of the structure shown.

In one data set the test system is Jurkat cells. Kind of data set: Cell cytotoxicity assay (r). The format is cell-based, human. As to conditions: 24 hours. On the procedure:
1×10^5 Jurkat cells (immortalised human T lymphocytes) are added to the appropriate number of wells of a 96 well plate in 100 μL of media (RPMI supplemented with 10% foetal bovine serum). 1 μL of DMSO control (final concentration 1.0% v/v) or test compound (final concentration 20, 5 or 1 μg/mL) is added to the wells and incubated at 37° C., 5% CO2. After 24 hours, the plate is centrifuged at 1200 rpm for 3 minutes and the supernatant discarded. Cells are then resuspended in 150 μL (final concentration 7.5 μg/mL) of propidium iodide (PI) in PBS and incubated at 37° C., 5% CO2 for 15 minutes. After 15 minutes, cells are analysed by flow cytometry (BD accuri) using the FL3 window. The % viability is calculated as the % of cells that are PI negative in the test wells normalised to the DMSO control.

A short description of data set [1]: Solubility in fasted-state simulated colonic fluid (FaSSCoF) at pH 6.5. The format is physicochemical. As to conditions: 25 °C, pH 6.5, fassgf or other biorelevant, thermodynamic from solid. A digest of the protocol:
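Compounds were suspended at up to 2-10 mg/mL in pH 6.5 Tris/maleate FaSSCoF containing a five-bile-acid mixture, phosphatidylcholine, palmitic acid and BSA. After 24 h equilibration at 25° C the suspension was filtered and the filtrate quantified by HPLC peak area against a standard.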

Where [2] appears, read: pH 6.5 FaSSCoF Solubility (mg/mL) Run 1.
[3] abbreviates: pH 6.5 FaSSCoF Solubility (mg/mL) Run 2.

Regarding `COc1cc(Nc2cc(Oc3ccc(NC(=O)Nc4cc(C(C)(C)C)cc(NS(C)(=O)=O)c4OC)c4ccccc34)ccn2)cc(OC)c1C(=O)NCC1CCN(C)CC1` [17(ca), 4-((4-((4-(3-(5-(tert-Butyl)-2-methoxy-3-(methylsulfonamido)phenyl)ureido)naphthalen-1-yl)oxy)pyridin-2-yl)amino)-2,6-dimethoxy-N-((1-methylpiperidin-4-yl)methyl)benzamide], the “% Viability at 5 μg/mL” value in the data set with Jurkat cells came out at 94.0%. For the same compound, the solubility (thermodynamic) at 24 h in data set [1] (setting [2]) and in data set [1] (setting [3]) was 2 µg/mL (≈ 2.38 µM) throughout.
Turning to `COc1cc(Nc2nccc(Oc3ccc(NC(=O)Nc4cc(C(C)(C)C)cc(NS(C)(=O)=O)c4OC)c4ccccc34)n2)ccc1C(=O)NCCCN1CCN(C)CC1` [17(ap), 4-((4-((4-(3-(5-(tert-Butyl)-2-methoxy-3-(methylsulfonamido)phenyl)ureido)naphthalen-1-yl)oxy)pyrimidin-2-yl)amino)-2-methoxy-N-(3-(4-methylpiperazin-1-yl)propyl)benzamide], in the data set with Jurkat cells, the “% Viability at 20 μg/mL” value is reported as 0.6%. Also, the thermodynamic solubility at 24 h in data set [1] (setting [2]) and in data set [1] (setting [3]) was < 1 µg/mL throughout.
As to `COc1c(NC(=O)Nc2ccc(Oc3ccnc(Nc4ccc(C(=O)NCCCN5CCOCC5)c(O)c4)c3)c3ccccc23)cc(C(C)(C)C)cc1NS(C)(=O)=O` [Example 29, 4-((4-((4-(3-(5-(tert-Butyl)-2-methoxy-3-(methylsulfonamido)phenyl)ureido)naphthalen-1-yl)oxy)pyridin-2-yl)amino)-2-hydroxy-N-(3-morpholinopropyl)benzamide], in the data set on Jurkat cells, the “% Viability at 20 μg/mL” value turned out to be 2.0%. Besides, the solubility (thermodynamic) at 24 h in data set [1] (setting [2]) was 11 µg/mL (≈ 13.5 µM); in data set [1] (setting [3]), 9 µg/mL (≈ 11.1 µM).
Take `COc1cc(Nc2cc(Oc3ccc(NC(=O)Nc4cc(C(C)(C)C)cc(NS(C)(=O)=O)c4OC)c4ccccc34)ccn2)ccc1S(=O)(=O)N(C)CCN1CCN(C)CC1` [17(bb), 4-((4-((4-(3-(5-(tert-Butyl)-2-methoxy-3-(methylsulfonamido)phenyl)ureido)naphthalen-1-yl)oxy)pyridin-2-yl)amino)-2-methoxy-N-methyl-N-(2-(4-methylpiperazin-1-yl)ethyl)benzenesulfonamide]: the “% Viability at 20 μg/mL” value in the data set on Jurkat cells was found to be 0.2%. In addition, the solubility (thermodynamic) at 24 h in data set [1] (setting [2]) and in data set [1] (setting [3]) was < 1 µg/mL throughout.
Turning to `COc1cc(Nc2cc(Oc3ccc(NC(=O)Nc4cc(C(C)(C)C)cc(NS(C)(=O)=O)c4OC)c4ccccc34)ccn2)ccc1C(=O)NC(C)CN1CCN(C)CC1` (stereo not drawn) [17(bl), 4-((4-((4-(3-(5-(tert-Butyl)-2-methoxy-3-(methylsulfonamido)phenyl)ureido)naphthalen-1-yl)oxy)pyridin-2-yl)amino)-2-methoxy-N-(1-(4-methylpiperazin-1-yl)propan-2-yl)benzamide], in the data set on Jurkat cells, the “% Viability at 5 μg/mL” value amounted to 0.2%. In addition, the “% Viability at 20 μg/mL” value with Jurkat cells was found to be 0.5%. The solubility (thermodynamic) at 24 h in data set [1] (setting [2]) was 16 µg/mL (≈ 19.1 µM); in data set [1] (setting [3]), 17 µg/mL (≈ 20.3 µM).
In the case of `COc1cc(Nc2cc(Oc3ccc(NC(=O)Nc4cc(NS(C)(=O)=O)cc(C(C)(C)C)c4)c4ccccc34)ccn2)ccc1C(=O)NCCN1CCN(C)CC1` [17(bo), 4-((4-((4-(3-(3-(tert-Butyl)-5-(methylsulfonamido)phenyl)ureido)naphthalen-1-yl)oxy)pyridin-2-yl)amino)-2-methoxy-N-(2-(4-methylpiperazin-1-yl)ethyl)benzamide], the “% Viability at 20 μg/mL” value in the data set on Jurkat cells worked out at 14.0%. The solubility (thermodynamic) at 24 h in data set [1] (setting [2]) was 35 µg/mL (≈ 44 µM); in data set [1] (setting [3]), 33 µg/mL (≈ 41.5 µM).
The matching figures for `COc1cc(Nc2cc(Oc3ccc(NC(=O)Nc4cc(C(C)(C)C)cc(NS(C)(=O)=O)c4OC)c4ccccc34)ccn2)ccc1-c1nn[nH]n1` [Example 24, N-(5-(tert-Butyl)-2-methoxy-3-(3-(4-((2-((3-methoxy-4-(2H-tetrazol-5-yl)phenyl)amino)pyridin-4-yl)oxy)naphthalen-1-yl)ureido)phenyl)methanesulfonamide]: 9.7%, 12 µg/mL (≈ 16.6 µM) and 10 µg/mL (≈ 13.8 µM).
For `COc1cc(Nc2cc(Oc3ccc(NC(=O)Nc4cc(C(C)(C)C)cc(NS(C)(=O)=O)c4OC)c4ccccc34)ccn2)ccc1C(=O)NCC(CO)(CO)CO` [Example 38, 4-((4-((4-(3-(5-(tert-Butyl)-2-methoxy-3-(methylsulfonamido)phenyl)ureido)naphthalen-1-yl)oxy)pyridin-2-yl)amino)-N-(3-hydroxy-2,2-bis(hydroxymethyl)propyl)-2-methoxybenzamide], in the data set with Jurkat cells, the “% Viability at 1 μg/mL” value is 90.0% and the “% Viability at 20 μg/mL” value is recorded as 6.0%. In addition, the thermodynamic solubility at 24 h in data set [1] (setting [2]) is 14 µg/mL (≈ 17.1 µM). Moreover, the solubility (thermodynamic) at 24 h in data set [1] (setting [3]) is 12 µg/mL (≈ 14.7 µM).
In the case of `COc1cc(Nc2cc(Oc3ccc(NC(=O)Nc4cc(C(C)(C)C)cc(NS(C)(=O)=O)c4OC)c4ccccc34)ccn2)ccc1S(=O)(=O)CCCN1CCN(C)CC1` [17(ch), N-(5-(tert-Butyl)-2-methoxy-3-(3-(4-((2-((3-methoxy-4-((3-(4-methylpiperazin-1-yl)propyl)sulfonyl)phenyl)amino)pyridin-4-yl)oxy)naphthalen-1-yl)ureido)phenyl)methanesulfonamide], in the data set with Jurkat cells, the “% Viability at 1 μg/mL” value came to 82.0% and the “% Viability at 20 μg/mL” value was found to be 0.7%.
Consider `COc1cc(Nc2cc(Oc3ccc(NC(=O)Nc4cc(C(C)(C)C)cc(NS(C)(=O)=O)c4OC)c4ccccc34)ccn2)ccc1C(=O)NCCCCCN(C)C` [17(bd), 4-((4-((4-(3-(5-(tert-Butyl)-2-methoxy-3-(methylsulfonamido)phenyl)ureido)naphthalen-1-yl)oxy)pyridin-2-yl)amino)-N-(5-(dimethylamino)pentyl)-2-methoxybenzamide], for which the “% Viability at 20 μg/mL” value with Jurkat cells is 0.1%.
Regarding `COc1cc(Nc2cc(Oc3ccc(NC(=O)Nc4cc(C(C)(C)C)cc(NS(C)(=O)=O)c4OC)c4ccccc34)ccn2)ccc1C(=O)N[C@@H]1CCN(C)C1` [17(cq), (R)-4-((4-((4-(3-(5-(tert-Butyl)-2-methoxy-3-(methylsulfonamido)phenyl)ureido)-naphthalen-1-yl)oxy)pyridin-2-yl)amino)-2-methoxy-N-(1-methylpyrrolidin-3-yl)benzamide], in the data set with Jurkat cells, the “% Viability at 5 μg/mL” value is 9.0% and the “% Viability at 20 μg/mL” value stood at 0.7%.
Consider `CCC(=O)NS(=O)(=O)c1ccc(Nc2nccc(Oc3ccc(NC(=O)Nc4cc(C(C)(C)C)cc(NS(C)(=O)=O)c4OC)c4ccccc34)n2)cc1OC` [17(bk), N-((4-((4-((4-(3-(5-(tert-Butyl)-2-methoxy-3-(methylsulfonamido)phenyl)ureido)-naphthalen-1-yl)oxy)pyrimidin-2-yl)amino)-2-methoxyphenyl)sulfonyl)propionamide], for which, in the data set on Jurkat cells, the “% Viability at 1 μg/mL” value was 93.0%.
For the compound `COc1cc(Nc2cc(Oc3ccc(NC(=O)Nc4cc(C(C)(C)C)cc(C(=O)NCCO)c4OC)c4ccccc34)ccn2)ccc1C(=O)NCCN1CC[S+]([O-])CC1` [Example 32, 5-(tert-Butyl)-N-(2-hydroxyethyl)-2-methoxy-3-(3-(4-((2-((3-methoxy-4-((2-(1-oxidothiomorpholino)ethyl)carbamoyl)phenyl)amino)pyridin-4-yl)oxy)naphthalen-1-yl)ureido)benzamide], the “% Viability at 20 μg/mL” value in the data set on Jurkat cells is 2.5%.
Still for that read-out and setting: to `COc1cc(Nc2cc(Oc3ccc(NC(=O)Nc4cc(NS(C)(=O)=O)cc(C(C)(C)C)c4)c4ccccc34)ccn2)ccc1C(=O)NCCC1CCN(C)CC1` [17(bs), 4-((4-((4-(3-(3-(tert-Butyl)-5-(methylsulfonamido)phenyl)ureido)naphthalen-1-yl)oxy)pyridin-2-yl)amino)-2-methoxy-N-(2-(1-methylpiperidin-4-yl)ethyl)benzamide] belongs 0.3%.
For the compound `COc1cc(Nc2cc(Oc3ccc(NC(=O)Nc4cc(C(C)(C)C)cc(NS(C)(=O)=O)c4OC)c4ccccc34)ccn2)ccc1C(=O)NCCC1CCNCC1` [Example 27, 4-((4-((4-(3-(5-(tert-Butyl)-2-methoxy-3-(methylsulfonamido)phenyl)ureido)naphthalen-1-yl)oxy)pyridin-2-yl)amino)-2-methoxy-N-(2-(piperidin-4-yl)ethyl)benzamide], the “% Viability at 20 μg/mL” value in the data set on Jurkat cells is reported as 1.7%.
Regarding `COc1cc(Nc2cc(Oc3ccc(NC(=O)Nc4cc(C(C)(C)C)cc(NS(C)(=O)=O)c4OC)c4ccccc34)ccn2)ccc1C(=O)NCCN1CCN(C)CC1(C)C` [17(bi), 4-((4-((4-(3-(5-(tert-Butyl)-2-methoxy-3-(methylsulfonamido)phenyl)ureido)naphthalen-1-yl)oxy)pyridin-2-yl)amino)-2-methoxy-N-(2-(2,2,4-trimethylpiperazin-1-yl)ethyl)benzamide], in the data set with Jurkat cells, the “% Viability at 5 μg/mL” value worked out at 0.8% and the “% Viability at 20 μg/mL” value was determined as 0.6%.
The matching figures for `COc1cc(Nc2cc(Oc3ccc(NC(=O)Nc4cc(C(C)(C)C)cc(NS(C)(=O)=O)c4OC)c4ccccc34)ccn2)ccc1C(=O)NCCN1CC[C@@H](O)C1` [17(cr), (R)-4-((4-((4-(3-(5-(tert-Butyl)-2-methoxy-3-(methylsulfonamido)phenyl)ureido)-naphthalen-1-yl)oxy)pyridin-2-yl)amino)-N-(2-(3-hydroxypyrrolidin-1-yl)ethyl)-2-methoxybenzamide]: 18.0% and 0.9%.
